Assays:
[1] = cited from earlier work
[2] = cited from earlier work; remark: listed apart in the source
[3] = Angle of repose (flowability); format: physicochemical; settings: sample passed through 12 mesh screen, funnel with 1 cm aperture
Source text: Another measure of flowability can be made by determining a material's angle of repose. The angle of repose is a standard test in the pharmaceutical industry to establish the relative flowability of a solid pharmaceutical formulation. (See, e.g., Lachman et al., “The Theory and Practice of Industrial Pharmacy” 3rd Ed. (1986) pp 67-68). A greater angle of repose means a less flowable material. Remington's Pharmaceuticals Sciences lists the angle of repose for glass beads (a high flowing material) at 23 degrees and for granular limestone (a poor flowing material) at 64 degrees. Cohesive materials can be as high as 90 degrees. (See Remington's Pharmaceutical Sciences, 19th Ed. Mack Publishing Co., (1995) p. 1607).
Angle of repose data was collected for ribavirin composition made in accordance with Examples 1 and 3 and compared to bulk ribavirin and a commercial ribavirin product. In determining the angle of repose for the compositions of the present invention and comparative examples thereto, a sample was passed through a 12 mesh screen to break up agglomerates. […] The funnel height was then measured, as well as the diameter (width) of the sample. […] The angle of repose for a given sample was calculated by taking the inverse tangent of the following equation: Tan (a)=2H/W, where H is the height of the funnel from the paper and W is the averaged diameter of the poured sample at its base.

Repose Angle, Trial 1 ([3]; Trial 1): 44 ° | Repose Angle, Trial 2 ([3]; Trial 2): 42 °
SMILES: NC(=O)c1ncn([C@@H]2O[C@H](CO)[C@@H](O)[C@H]2O)n1 [ribavirin, 1-β-D-ribofuranosyl-1H-1,2,4-triazole-3-carboxamide]
solubility [1]: water-soluble | bioavailability with food ([2]; administered with a high fat meal): increase significantly | biological half-life ([2]; in vivo, after multiple oral dosing (steady state)): ca. 298 hours | bioavailability (AUC) versus dose ([2]; oral administration, Physician's Desk Reference): increases linearly with the dose | maximum concentration of the drug in vivo (Cmax) versus dose ([2]; oral administration, curvilinear, reaching an asymptote, Physician's Desk Reference): does not increase linearly with the dose

— patent US7538094B2, “Composition containing ribavirin and use thereof” (Three Rivers Pharmacueticals, LLC, priority 2002, dated 2009)
